Patent US20040034082A1, “Utilization of pyrazoline derivatives in the preparation of a medicament for the prevention and/or treatment of proliferative cell diseases” (priority 2001, published 2004)
In brackets after ≈: the same amount, converted by molar mass. Read-outs that look alike come from different tables or passages of the source. Each block holds one compound with its values, some of them ahead of it.

Assays:
[1] = tested on: MDAMB 453; assay: Cytotoxicity (XTT kit), mammary carcinoma cell line MDAMB 453; format: cell-based; conditions: for viability at 1 µM / viability at 20 µM / viability at 40 µM / viability at 60 µM / viability at 80 µM: MDA-MB-453, read-out: % Viability of mammary cancer cells ± SD; for IC50: read-out: IC-50 (cytotoxicity)
Description: The anti-tumoral activity of the compounds with general formula (I) was studied, determining their effect on a mammary carcinoma cell line (MDAMB 453). The cell line was cultured in a DMEM medium (Life Technologies) supplemented with 10% foetal bovine serum (Life Technologies) at 37° C. and 5% CO2.
(§1) Cytotoxicity tests were carried out using the XTT kit (Boehringer-Manheim) which measures the cell capability to metabolise a tetrazoyl salt to formazan.

[2] = tested on: TD20; assay: Induction of apoptosis in tumour cell line TD20; format: cell-based, human; conditions: 100 μM
Description: In order to obtain a deeper knowledge of the action mechanism of these compounds the capability to induce apoptosis in the tumour cell line TD20 of the compound of example 3 was studied (dose 100 μM).

[3] = tested on: TF; assay: Inhibition of the induction of TF: promoter-luciferase in transfected Caco-2 cells, TPA; format: cell-based; conditions: Homo sapiens, TPA 16 hours, read-out: Inhibition of the induction of TF IC-50
From the text: In turn, VEGF also induces the expression of Tissue Factor (TF) in monocyte membranes, epithelial cells and endothelium. Although the main function of TF is to initiate the coagulation cascade, it can transduce intracellular signals participating in metastasis and angiogenesis associated to tumours. TF facilitates in vivo growth of the tumour, favouring angiogenesis.
(§2) In order to study the antiangiogenic activity of the products with general formula (I), the expression of the VEGF promoter was studied in a basal and stimulated situation using the Caco-2 human colon carcinoma cell line, temporally transfected with a vector containing the promoter f the human VEGF gene. Once the test conditions were established the capability of the product studied to inhibit the expression of the VEGF and TF genes was studied by measuring the luciferase activity of their promoters.
In the test 1.25×10^5 Caco-2 cells were used temporally transfected with t corresponding DNA in 500 μl of DEMEM-10% FCS medium in 24 dimple plates. The cells were pre-treated for 1 hour with the compounds to be tested, and later stimulated with TPA for 16 hours. Afterwards cell extracts were obtained and their luciferase activity examined, determining the protein concentration.

[4] = tested on: NC59 cells; assay: Signal transduction paths associated to apoptosis in NC59 cells; format: cell-based, human; conditions: 100 μM, 5 and 20 hours of exposure
Description: The signal transduction paths associated to the apoptosis process were then studied. After exposing NC59 cells to a 100 μM concentration of the compound of example 3, the expression levels were studied for p53, FAK and β-actine and the activation level of MAP kinases, JNK and PKB/Akt, after 5 and 20 hours of exposure.

[5] = tested on: NC59; assay: Cytotoxicity (XTT kit), human colon carcinoma cell line NC59; format: cell-based; conditions: for IC50: read-out: IC-50 (cytotoxicity)
Description: (§3) The anti-tumoral activity of the compounds with general formula (I) was studied, determining their effect on cell lines of human colon carcinoma (TD 20 and NC 59). The two cell lines have the wild protein K-Ras. TD20 contains a mutation of the p53 suppressor gene, while NC59 has the p53 wild protein.
(§4) Both cell lines were cultured in a DMEM medium (Life Technologies) supplemented with 10% foetal bovine serum (Life Technologies) at 37° C. and 5% CO2.
as §1

[6] = tested on: TD 20; assay: Cytotoxicity (XTT kit), human colon carcinoma cell line TD20; format: cell-based; conditions: for IC50: read-out: IC-50 (cytotoxicity)
Description: as §3, §4, §1

[7] = tested on: promoter of the human VEGF gene; assay: Inhibition of the induction of VEGF: promoter-luciferase in transfected Caco-2 cells, TPA; format: cell-based; conditions: TPA 16 hours, read-out: Inhibition of the induction of VEGF IC-50
From the text: This activity has been studied determining the inhibition of the induction of the expression of VEGF. The increased expression of vascular-endothelial growth factor (VEGF) has been related to tumour progression and angiogenesis. VEGF is a proangiogenic factor, promoting mitogenesis, migration and an increased vascular permeability of in vitro endothelial cells. It has been shown recently that COX-2 can regulate the angiogenesis process induced by colon cancer cells, increasing the expression of proangiogenic factors by said cells. Inhibition of COX-2 may block this process, inhibiting the expression of some of these factors, such as VEGF.
as §2
In the test 1.25×10^5 Caco-2 cells were used temporally transfected with t corresponding DNA in 500 μl of DEMEM-10% FCS medium in 24 dimple plates. […]

[8] = tested on: promoter of the gene COX-2; assay: Inhibition of the induction of COX-2: stable transfectant JURKAT cells, COX-2 promoter-luciferase, TPA+ionomycine; format: cell-based; conditions: Homo sapiens
[9] = tested on: TNF-α; assay: Inhibition of TNF-α, zymosan air pouch model in mice (ELISA); format: in vivo; conditions: i.p.
Description: The study of the inhibitory activity of TNF-α has been performed according to the method described by P. Klemen et al. (Europ. J. Pharmacol. 1995 281: 69-74), consisting of determining the production of TNF-α in the localised area where the inflammation is acute, specifically using the zymosan inflated air pouch model in mice. The TNF-α present in the inflammatory exudates produced in said pouch as a result of the stimulation with zymosan was determined. The analytical determination of TNF-α was performed by ELISA.

[10] = Homo sapiens, Colon carcinoma cell, read-out: % Viability of colorectal cancer cells ± SD
[11] = Homo sapiens, Colon carcinoma cell, 30 μM, read-out: % Viability of colorectal cancer cells ± SD
[12] = Homo sapiens, Colon carcinoma cell, 100 μM, read-out: % Viability of colorectal cancer cells ± SD
[13] = Homo sapiens, Colon carcinoma cell
[14] = Homo sapiens, Colon carcinoma cell, 80 μM, read-out: % Viability of colorectal cancer cells ± SD

IC50 [3]: 25 µg/mL (≈ 61.7 µM)
IC50 [7]: 20 µg/mL (≈ 49.3 µM)
SMILES: NS(=O)(=O)c1ccc(N2N=C(C(F)(F)F)CC2c2ccc(F)cc2F)cc1 (racemic) [Example 3, 1-(4-aminosulphonylphenyl)-5(2,4-difluorophenyl)-4,5-dihydro-3-trifluoromethyl-1H-pyrazol]
viability at 1 µM ([1]; Homo sapiens, MDAMB 453): 94.8 ± 8.71%
viability at 20 µM ([1]; Homo sapiens, MDAMB 453): 31.5 ± 9.12%
viability at 40 µM ([1]; Homo sapiens, MDAMB 453): 12.8 ± 4.8%
viability at 60 µM ([1]; Homo sapiens, MDAMB 453): 5.97 ± 5.06%
viability at 80 µM ([1]; Homo sapiens, MDAMB 453): 2.84 ± 1.71%
apoptotic cells ([2]; after 24 h): 20%
apoptotic cells ([2]; after 48 h): 80%
signal transduction paths activated (p53, FAK, β-actine expression; MAP kinases, JNK, PKB/Akt activation) [4]: activation of signal transduction paths other than p53, JNK or p38
viability at 1 µM [5, 10]: 99.64 ± 0.51%
viability at 20 µM [5, 10]: 76.5 ± 8.7%
viability at 30 µM [5, 11]: 56.5 ± 0.25%
viability at 40 µM [5, 10]: 16.7 ± 10.5%
viability at 60 µM [5, 10]: 1.16 ± 0.83%
viability at 100 µM [5, 12]: 0%
IC50 [5, 13]: 30 µM
IC50 [5]: 29.9 µM
viability at 1 µM [6, 10]: 98.6 ± 2.83%
viability at 20 µM [6, 10]: 84.5 ± 3.05%
viability at 30 µM [6, 11]: 66.3 ± 5.84%
viability at 40 µM [6, 10]: 27.4 ± 4.12%
viability at 60 µM [6, 10]: 1.79 ± 2.09%
viability at 100 µM [6, 12]: 0.69 ± 0.01%
IC50 [6, 13]: 34 µM
IC50 [6]: 33.9 µM

IC50 [3]: 22 µg/mL (≈ 56.9 µM)
IC50 ([8]; Clone C7, read-out: IC-50 (μg/ml), inhibition of luciferase activity): 5.8 µg/mL (≈ 15 µM)
IC50 ([8]; Clone C9, read-out: IC-50 (μg/ml), inhibition of luciferase activity): 0.9 µg/mL (≈ 2.33 µM)
IC50 ([8]; Clone F9, read-out: IC-50 (μg/ml), inhibition of luciferase activity): 1.8 µg/mL (≈ 4.66 µM)
IC50 [7]: 25 µg/mL (≈ 64.7 µM)
SMILES: CS(=O)(=O)c1ccc(C2CC(C(F)(F)F)=NN2c2ccc(F)cc2)cc1 (stereo not drawn) [Example 10]
IC50 ([1]; Homo sapiens, MDA-MB-453, MDAMB 453): 18 µM
viability at 1 µM ([1]; Homo sapiens, MDAMB 453): 97.5 ± 3.25%
viability at 20 µM ([1]; Homo sapiens, MDAMB 453): 42.8 ± 9.31%
viability at 40 µM ([1]; Homo sapiens, MDAMB 453): 33.3 ± 7.34%
viability at 60 µM ([1]; Homo sapiens, MDAMB 453): 8.25 ± 6.82%
viability at 80 µM ([1]; Homo sapiens, MDAMB 453): 5.8 ± 4.76%
IC50 ([1]; MDAMB 453): 17.9 µM
inhibition at 0.5 µg/mL ([8]; Clone C7, 0.5 μg/ml): 20%
inhibition at 5 µg/mL ([8]; Clone C7, 5 μg/ml): 55%
inhibition at 50 µg/mL ([8]; Clone C7, 50 μg/ml): 85%
inhibition at 0.5 µg/mL ([8]; Clone C9, 0.5 μg/ml): 40%
inhibition at 5 µg/mL ([8]; Clone C9, 5 μg/ml): 75%
inhibition at 50 µg/mL ([8]; Clone C9, 50 μg/ml): 85%
inhibition at 0.5 µg/mL ([8]; Clone F9, 0.5 μg/ml): 32%
inhibition at 5 µg/mL ([8]; Clone F9, 5 μg/ml): 65%
inhibition at 50 µg/mL ([8]; Clone F9, 50 μg/ml): 95%
viability at 1 µM [5, 10]: 92.1 ± 9.35%
viability at 20 µM [5, 10]: 76.1 ± 7.17%
viability at 40 µM [5, 10]: 15.8 ± 9.37%
viability at 60 µM [5, 10]: 2.59 ± 1.54%
viability at 80 µM [5, 14]: 1.66 ± 1.57%
IC50 [5, 13]: 27 µM
IC50 [5]: 27.2 µM
viability at 1 µM [6, 10]: 95 ± 8.87%
viability at 20 µM [6, 10]: 90.2 ± 5.97%
viability at 40 µM [6, 10]: 43.1 ± 13.8%
viability at 60 µM [6, 10]: 5.42 ± 4.11%
viability at 80 µM [6, 14]: 3.22 ± 3.46%
IC50 [6, 13]: 38 µM
IC50 [6]: 37.9 µM
% Inhibition of TNF-α in inflammatory exudate stimulated by zymosan ([9]; 0.039 mg/kg): 12.6 ± 2.6%
% Inhibition of TNF-α in inflammatory exudate stimulated by zymosan ([9]; 0.156 mg/kg): 15.7 ± 4.9%
% Inhibition of TNF-α in inflammatory exudate stimulated by zymosan ([9]; 0.625 mg/kg): 46.8 ± 12.5%
% Inhibition of TNF-α in inflammatory exudate stimulated by zymosan ([9]; 2.5 mg/kg): 58.8 ± 13.6%
DE-50, inhibition of TNF-α [9]: DE-50 = 1.20 mg/kg, i.p.
